Values joined by “and” are separate entries in the source; they are usually repeats but may differ in a detail not shown here. Equal entries are not always repeated. Toxic doses and inconclusive results are not listed.

This test has as its system P388 leukemia ip, CD2F1 mice, survival T/C. Description: NCI In Vivo Anticancer Drug Screen. Data for tumor model P388 Leukemia (intraperitoneal) in CD2F1 (CDF1) mice. To be noted: endpoint: median survival time, higher = longer survival. In a few lines: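 Mice carrying the transplanted tumor received test compound or vehicle. Survival was recorded in each group, and the value is the treated-group measurement divided by that of the vehicle-treated control group.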

[1] abbreviates: dose: 12.5 mg/kg/injection, schedule: Q01DX005 (ip), vehicle: Klucel (hydroxypropylcellulose) (HPC).
[2] abbreviates: dose: 25.0 mg/kg/injection, schedule: Q01DX005 (ip), vehicle: Klucel (hydroxypropylcellulose) (HPC).
[3] abbreviates: dose: 60.0 mg/kg/injection, schedule: Q01DX005 (ip), vehicle: saline with Tween-80.
Setting [4] is: dose: 120.0 mg/kg/injection, schedule: Q01DX005 (ip), vehicle: saline with Tween-80.
The mark [5] stands for this setting: dose: 240.0 mg/kg/injection, schedule: Q01DX005 (ip), vehicle: saline with Tween-80.
Where [6] appears, read: dose: 12.5 mg/kg/injection, schedule: Q01DX009 (ip), vehicle: saline with Tween-80.
Where [7] appears, read: dose: 25.0 mg/kg/injection, schedule: Q01DX009 (ip), vehicle: saline with Tween-80.
Setting [8] is: dose: 50.0 mg/kg/injection, schedule: Q01DX009 (ip), vehicle: saline with Tween-80.
[9] abbreviates: dose: 100.0 mg/kg/injection, schedule: Q01DX009 (ip), vehicle: saline with Tween-80.
[10] abbreviates: dose: 12.5 mg/kg/injection, schedule: Q01DX009 (ip), vehicle: saline.
Where [11] appears, read: dose: 50.0 mg/kg/injection, schedule: Q01DX005 (ip), vehicle: Klucel (hydroxypropylcellulose) (HPC).
[12] abbreviates: dose: 100.0 mg/kg/injection, schedule: Q01DX005 (ip), vehicle: Klucel (hydroxypropylcellulose) (HPC).
Setting [13] is: dose: 200.0 mg/kg/injection, schedule: Q01DX005 (ip), vehicle: Klucel (hydroxypropylcellulose) (HPC).

Turning to `Cc1cc(O)c2c(c1)C(=O)c1c(c(O)cc(O)c1-c1c(O)cc(O)c3c1C(=O)c1cc(C)cc(O)c1C3=O)C2=O`, the T/C is, setting by setting: (dose: 3.0 mg/kg/injection, schedule: Q01DX005 (ip), vehicle: Klucel (hydroxypropylcellulose) (HPC)) 95 % of control; (dose: 6.0 mg/kg/injection, schedule: Q01DX005 (ip), vehicle: Klucel (hydroxypropylcellulose) (HPC)) 99 % of control; (dose: 12.0 mg/kg/injection, schedule: Q01DX005 (ip), vehicle: Klucel (hydroxypropylcellulose) (HPC)) 96 % of control; under setting [1], 91 % of control; (dose: 24.0 mg/kg/injection, schedule: Q01DX005 (ip), vehicle: Klucel (hydroxypropylcellulose) (HPC)) 93 % of control; under setting [2], 93 % of control.
Turning to `O=C1Nc2ccccc2NC(=O)C(=C(c2ccccc2)c2ccccc2)C1=C(c1ccccc1)c1ccccc1`, the T/C reads like this: under setting [3], 90 % of control; under setting [4], 89 % of control; under setting [5], 89 % of control.
Turning to `O=Ic1ccccc1`, the T/C by setting is: (dose: 3.12 mg/kg/injection, schedule: Q01DX009 (ip), vehicle: saline with Tween-80) 104 % of control; (dose: 6.25 mg/kg/injection, schedule: Q01DX009 (ip), vehicle: saline with Tween-80) 108 % of control; under setting [6], 114 % of control; under setting [7], 112 % of control; under setting [8], 99 % of control.
On to `[Cl][Pt+2][Cl].[NH-]CCC[NH-]`, for which the T/C (dose: 6.25 mg/kg/injection, schedule: Q04DX002 (ip), vehicle: saline) was 178 % of control and the T/C (dose: 12.5 mg/kg/injection, schedule: Q04DX002 (ip), vehicle: saline) was 183 % of control.
Regarding `CN(C)CCCN1CN(CCCN(C)C)CN(CCCN(C)C)C1`, the T/C was 99 % of control (dose: 50.0 mg/kg/injection, schedule: Q01DX005 (ip), vehicle: saline) and 103 % of control (dose: 100.0 mg/kg/injection, schedule: Q01DX005 (ip), vehicle: saline).
Take `Nc1ncnc2c1cnn2C1OC(CO)C(O)C1O` (stereo not drawn): the T/C was 152 % of control (dose: 16.5 mg/kg/injection, schedule: Q01DX009 (ip), vehicle: saline with Tween-80); 154 % of control under setting [7]; 124 % of control (dose: 37.5 mg/kg/injection, schedule: Q01DX009 (ip), vehicle: saline with Tween-80).
Regarding `CCOC(=O)c1cc2nc3ccccn3c(=O)c2cc1N`, the T/C runs as follows: under setting [6], 105 % of control and 93 % of control; under setting [7], 87 % of control and 90 % of control; under setting [8], 92 % of control; under setting [9], 86 % of control and 96 % of control.
`C=CCC1CCSC1=O` (stereo not drawn): the T/C (dose: 25.0 mg/kg/injection, schedule: Q04DX003 (ip), vehicle: saline with Tween-80) is 109 % of control.
For `CCCCCCC(=O)/C=C/c1ccc(OCOC)cc1`, the T/C (dose: 50.0 mg/kg/injection, schedule: Q01DX009 (ip), vehicle: saline + alcohol) is 97 % of control; the T/C (dose: 100.0 mg/kg/injection, schedule: Q01DX009 (ip), vehicle: saline + alcohol) was 121 % of control; the T/C (dose: 200.0 mg/kg/injection, schedule: Q01DX009 (ip), vehicle: saline + alcohol) was 100 % of control.
Turning to `CC(C)(CO)NCCNC(C)(C)CO`, the T/C by setting is: (dose: 50.0 mg/kg/injection, schedule: Q01DX005 (ip), vehicle: saline with Tween-80) 98 % of control; (dose: 100.0 mg/kg/injection, schedule: Q01DX005 (ip), vehicle: saline with Tween-80) 90 % of control; (dose: 200.0 mg/kg/injection, schedule: Q01DX005 (ip), vehicle: saline with Tween-80) 100 % of control.
Regarding `CCOCC(=O)N[C@H]1CCc2cc(OC)c(OC)c(OC)c2-c2ccc(SC)c(=O)cc21`, the T/C (dose: 0.75 mg/kg/injection, schedule: Q01DX009 (ip), vehicle: Klucel (hydroxypropylcellulose) (HPC)) is 158 % of control and 161 % of control; the T/C (dose: 1.5 mg/kg/injection, schedule: Q01DX009 (ip), vehicle: Klucel (hydroxypropylcellulose) (HPC)) was 193 % of control and 229 % of control.
Regarding `COCCOCn1cccc1Cc1ccc(C)cc1`, the T/C runs as follows: (dose: 100.0 mg/kg/injection, schedule: Q01DX001 (ip), vehicle: distilled water + alcohol) 100 % of control; (dose: 200.0 mg/kg/injection, schedule: Q01DX001 (ip), vehicle: distilled water + alcohol) 96 % of control; (dose: 400.0 mg/kg/injection, schedule: Q01DX001 (ip), vehicle: distilled water + alcohol) 99 % of control.
On to `O=C1CCCc2c1ccn2Cc1ccccc1`, for which the T/C is, setting by setting: (dose: 25.0 mg/kg/injection, schedule: Q04DX003 (ip), vehicle: Klucel (hydroxypropylcellulose) (HPC)) 105 % of control; (dose: 50.0 mg/kg/injection, schedule: Q04DX003 (ip), vehicle: Klucel (hydroxypropylcellulose) (HPC)) 100 % of control; (dose: 100.0 mg/kg/injection, schedule: Q04DX003 (ip), vehicle: Klucel (hydroxypropylcellulose) (HPC)) 100 % of control; (dose: 200.0 mg/kg/injection, schedule: Q04DX003 (ip), vehicle: Klucel (hydroxypropylcellulose) (HPC)) 99 % of control.
As to `Cc1nc2[nH]c(=S)[nH]c(=O)c2[nH]c1=O`, the T/C reads like this: under setting [10], 97 % of control; (dose: 25.0 mg/kg/injection, schedule: Q01DX009 (ip), vehicle: saline) 114 % of control; (dose: 50.0 mg/kg/injection, schedule: Q01DX009 (ip), vehicle: saline) 120 % of control; (dose: 100.0 mg/kg/injection, schedule: Q01DX009 (ip), vehicle: saline) 120 % of control.
For the compound `O=C(O)c1cc(C(=O)CC(=O)c2cc(C(=O)O)c(O)c3ccccc23)c2ccccc2c1O`, the T/C was 94 % of control under setting [8] and 88 % of control under setting [9].
As to `C=C(c1ccc(OC)c(OC)c1)c1nccc2cc(OC)c(OC)cc12`, the T/C was 98 % of control under setting [11], 96 % of control under setting [12] and 100 % of control under setting [13].
On to `Cc1ccc(-c2nnc3cc(C)n4nnnc4n23)cc1`, for which the T/C by setting is: (dose: 6.25 mg/kg/injection, schedule: Q01DX005 (ip), vehicle: Klucel (hydroxypropylcellulose) (HPC)) 101 % of control; under setting [1], 108 % of control; under setting [2], 108 % of control; under setting [11], 101 % of control; under setting [12], 105 % of control; under setting [13], 107 % of control.
For `CC(C=O)CC1CCCCC1` (stereo not drawn), the T/C by setting is: (dose: 50.0 mg/kg/injection, schedule: Q04DX003 (ip), vehicle: saline with Tween-80) 100 % of control; (dose: 100.0 mg/kg/injection, schedule: Q04DX003 (ip), vehicle: saline with Tween-80) 100 % of control; (dose: 200.0 mg/kg/injection, schedule: Q04DX003 (ip), vehicle: saline with Tween-80) 109 % of control.
For `Cc1[nH]c2c(ccc3ccccc32)c(=O)c1N=Nc1ccc(C(=N)N)cc1`, the T/C by setting is: (dose: 50.0 mg/kg/injection, schedule: Q01DX005 (ip), vehicle: Klucel + Tween-80) 124 % of control; (dose: 200.0 mg/kg/injection, schedule: Q01DX005 (ip), vehicle: Klucel + Tween-80) 154 % of control; (dose: 400.0 mg/kg/injection, schedule: Q01DX005 (ip), vehicle: Klucel + Tween-80) 168 % of control.
As to `CCn1c2[n+](c3ccccc31)CCC2`, the T/C is 114 % of control (dose: 3.12 mg/kg/injection, schedule: Q01DX009 (ip), vehicle: saline); 113 % of control (dose: 6.25 mg/kg/injection, schedule: Q01DX009 (ip), vehicle: saline); 114 % of control under setting [10].
For the compound `CC1COS(=O)O1` (stereo not drawn), the T/C by setting is: (dose: 20.0 mg/kg/injection, schedule: Q01DX009 (ip), vehicle: saline sonified) 109 % of control; (dose: 40.0 mg/kg/injection, schedule: Q01DX009 (ip), vehicle: saline sonified) 109 % of control.
Turning to `COC(=O)C1(CC(=O)c2cccc3ccccc23)NC(=S)NC(=O)C1C#N` (stereo not drawn), the T/C is 101 % of control under setting [3], 101 % of control under setting [4] and 102 % of control under setting [5].
With `CC1=CCC2(C)CCC(C(C)C)C2(O)CC1` (stereo not drawn), the T/C (dose: 50.0 mg/kg/injection, schedule: Q04DX003 (ip), vehicle: saline) was 104 % of control; the T/C (dose: 100.0 mg/kg/injection, schedule: Q04DX003 (ip), vehicle: saline) was 90 % of control; the T/C (dose: 200.0 mg/kg/injection, schedule: Q04DX003 (ip), vehicle: saline) is 100 % of control.
